Assay results reported in ChEMBL document CHEMBL1154564 (J Nat Prod, 2000).

Columns and labels:
[1] = target: T1, Alpha-1A adrenergic receptor (Rattus norvegicus, UniProt P43140); test: Displacement of [3H]prazosin from adrenergic alpha1A receptor in rat brain membrane; type: cell membranes
T1 sequence (P43140 whole entry): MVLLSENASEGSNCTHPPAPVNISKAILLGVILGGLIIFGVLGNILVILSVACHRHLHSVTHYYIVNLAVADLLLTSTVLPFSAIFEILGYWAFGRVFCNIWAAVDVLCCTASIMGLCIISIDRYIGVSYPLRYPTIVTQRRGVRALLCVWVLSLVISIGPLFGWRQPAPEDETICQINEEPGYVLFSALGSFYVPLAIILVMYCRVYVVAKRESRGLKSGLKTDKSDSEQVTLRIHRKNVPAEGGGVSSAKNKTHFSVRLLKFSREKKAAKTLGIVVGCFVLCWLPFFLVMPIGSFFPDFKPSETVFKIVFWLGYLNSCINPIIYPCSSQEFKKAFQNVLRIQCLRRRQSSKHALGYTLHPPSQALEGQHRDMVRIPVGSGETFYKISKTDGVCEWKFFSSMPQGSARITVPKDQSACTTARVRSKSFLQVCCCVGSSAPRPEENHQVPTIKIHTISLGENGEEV

D(2) dopamine receptor = D(2) dopamine receptor (Rattus norvegicus, UniProt P61169); test: Displacement of [3H]raclopride from dopamine D2 receptor in Wistar rat striatal membrane; type: cell membranes, Striatum
Rattus norvegicus [2] = species: Rattus norvegicus; test: Selectivity ratio of IC50 for Wistar rat dopamine D2 receptor to IC50 for Wistar rat dopamine D1 receptor
[3] = target: T2, Alpha-1B adrenergic receptor (Rattus norvegicus, UniProt P15823); test: Displacement of [3H]prazosin from adrenergic Alpha-1B receptor in rat brain membrane; type: cell membranes
T2 sequence (P15823 whole entry): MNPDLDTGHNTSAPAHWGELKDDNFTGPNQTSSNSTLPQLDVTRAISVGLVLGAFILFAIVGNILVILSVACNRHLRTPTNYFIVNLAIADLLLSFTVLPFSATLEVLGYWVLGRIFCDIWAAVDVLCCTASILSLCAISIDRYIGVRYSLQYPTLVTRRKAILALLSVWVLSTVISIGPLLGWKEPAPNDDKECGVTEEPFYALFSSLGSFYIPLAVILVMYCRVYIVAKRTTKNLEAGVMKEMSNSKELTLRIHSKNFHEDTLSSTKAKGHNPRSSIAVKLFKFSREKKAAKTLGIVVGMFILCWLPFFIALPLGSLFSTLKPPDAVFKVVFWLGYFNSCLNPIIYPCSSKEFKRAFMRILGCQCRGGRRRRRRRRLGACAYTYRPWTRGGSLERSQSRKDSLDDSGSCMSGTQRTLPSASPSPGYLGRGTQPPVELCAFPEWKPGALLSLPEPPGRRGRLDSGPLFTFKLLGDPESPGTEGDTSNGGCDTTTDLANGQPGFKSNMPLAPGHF

D(1A) dopamine receptor = D(1A) dopamine receptor (Rattus norvegicus, UniProt P18901); test: Displacement of [3H]SCH23390 from dopamine D1 receptor in Wistar rat striatal membrane; type: cell membranes, Striatum
Rattus norvegicus [4] = species: Rattus norvegicus; test: Selectivity ratio of IC50 for rat adrenergic alpha1A receptor to IC50 for adrenergic Alpha-1B receptor

Sequence of D(2) dopamine receptor (P61169 whole entry): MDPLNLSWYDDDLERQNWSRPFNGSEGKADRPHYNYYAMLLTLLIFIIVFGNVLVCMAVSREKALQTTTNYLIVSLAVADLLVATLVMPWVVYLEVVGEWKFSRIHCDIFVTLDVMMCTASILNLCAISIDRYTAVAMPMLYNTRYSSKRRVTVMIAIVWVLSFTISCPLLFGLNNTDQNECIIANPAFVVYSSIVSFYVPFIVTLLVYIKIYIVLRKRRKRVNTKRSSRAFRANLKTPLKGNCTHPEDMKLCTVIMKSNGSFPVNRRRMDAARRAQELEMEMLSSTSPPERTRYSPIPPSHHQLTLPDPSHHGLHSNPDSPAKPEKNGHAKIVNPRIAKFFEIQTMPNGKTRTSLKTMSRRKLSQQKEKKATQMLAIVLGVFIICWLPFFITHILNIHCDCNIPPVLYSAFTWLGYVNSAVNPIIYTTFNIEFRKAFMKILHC
Sequence of D(1A) dopamine receptor (P18901 whole entry): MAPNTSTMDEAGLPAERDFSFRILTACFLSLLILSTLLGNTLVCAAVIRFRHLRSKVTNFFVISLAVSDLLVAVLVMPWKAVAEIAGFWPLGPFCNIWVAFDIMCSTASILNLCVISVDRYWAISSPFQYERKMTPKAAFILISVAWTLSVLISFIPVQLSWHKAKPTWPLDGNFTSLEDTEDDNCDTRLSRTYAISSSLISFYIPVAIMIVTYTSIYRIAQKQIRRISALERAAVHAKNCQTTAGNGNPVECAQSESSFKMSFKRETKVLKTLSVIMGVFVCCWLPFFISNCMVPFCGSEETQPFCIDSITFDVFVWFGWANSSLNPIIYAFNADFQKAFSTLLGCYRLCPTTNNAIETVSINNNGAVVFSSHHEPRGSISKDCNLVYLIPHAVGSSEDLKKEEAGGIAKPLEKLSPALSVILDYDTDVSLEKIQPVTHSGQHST

| SMILES | Ki [1] | IC50 (D(2) dopamine receptor) | Ratio IC50 (Rattus norvegicus [2]) | Ki [3] | IC50 (D(1A) dopamine receptor) | Ratio (Rattus norvegicus [4]) |
| --- | --- | --- | --- | --- | --- | --- |
| COc1cc2c(cc1O)C[C@H]1c3c(c(Cl)c(O)c(OC)c3-2)CCN1C | 2.24 nM | 720 nM | 8.9 | 269 nM | 81 nM | 122 |
| COc1cc2c(cc1O)C[C@H]1c3c(c(Br)c(O)c(OC)c3-2)CCN1C [3-BROMOBOLDINE] | 1.17 nM | 1050 nM | 15.9 | 135 nM | 66 nM | 120 |
| COc1cc2c(cc1O)C[C@H]1c3c(c(I)c(O)c(OC)c3-2)CCN1C | – | 96 nM | 32 | – | 3 nM | – |
| COc1cc2c(cc1O)C[C@H]1c3c(cc(O)c(OC)c3-2)CCN1C [BOLDINE] | 4.9 nM | – | – | 316 nM | – | – |
| COc1cc2c(c(Br)c1O)C[C@H]1c3c(c(Br)c(O)c(OC)c3-2)CCN1C | 1.35 nM | 1910 nM | 9.3 | 120 nM | 206 nM | 90 |
